Experimental data taken from ChEMBL document CHEMBL1148292 (J Med Chem, 2004).

Key:
[1] = molecular target: T1, Adenosine receptor A3 (Homo sapiens, UniProt P0DMS8); assay: Binding affinity of compound for displacement of specific [3H]MRE3008-F20 binding at human A3 receptors expressed in CHO cells; assay type: cell-based
T1 sequence (P0DMS8 whole entry): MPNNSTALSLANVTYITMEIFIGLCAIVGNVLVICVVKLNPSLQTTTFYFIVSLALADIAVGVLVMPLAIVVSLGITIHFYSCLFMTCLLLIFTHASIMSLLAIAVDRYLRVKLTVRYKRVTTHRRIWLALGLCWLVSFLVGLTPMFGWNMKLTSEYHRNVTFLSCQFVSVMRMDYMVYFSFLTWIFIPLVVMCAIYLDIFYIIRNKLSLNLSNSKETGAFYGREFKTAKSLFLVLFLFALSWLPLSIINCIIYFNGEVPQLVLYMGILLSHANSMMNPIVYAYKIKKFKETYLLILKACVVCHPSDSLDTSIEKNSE

[2] = molecular target: Adenosine receptor A2a (Homo sapiens, UniProt P29274); assay: Binding affinity of compound for displacement of specific [3H]ZM-241385 binding at human adenosine A2A receptor expressed in CHO cells; assay type: cell-based
Sequence of Adenosine receptor A2a (P29274 whole entry): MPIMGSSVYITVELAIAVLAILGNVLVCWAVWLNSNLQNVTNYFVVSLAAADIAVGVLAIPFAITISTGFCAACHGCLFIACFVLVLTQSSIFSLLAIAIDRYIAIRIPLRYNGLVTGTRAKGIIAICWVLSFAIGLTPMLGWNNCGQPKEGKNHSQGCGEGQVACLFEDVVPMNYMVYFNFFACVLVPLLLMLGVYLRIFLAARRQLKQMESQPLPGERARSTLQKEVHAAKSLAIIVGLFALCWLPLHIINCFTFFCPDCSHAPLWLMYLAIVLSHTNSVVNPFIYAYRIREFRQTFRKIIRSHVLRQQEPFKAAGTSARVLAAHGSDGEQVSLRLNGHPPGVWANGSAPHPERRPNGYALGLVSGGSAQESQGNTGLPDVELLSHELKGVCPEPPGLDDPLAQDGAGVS

[3] = molecular target: T2, Adenosine receptor A1 (Homo sapiens, UniProt P30542); assay: Displacement of specific [3H]DPCPX binding at human adenosine A1 receptor expressed in CHO cells; assay type: cell-based
T2 sequence (P30542 whole entry): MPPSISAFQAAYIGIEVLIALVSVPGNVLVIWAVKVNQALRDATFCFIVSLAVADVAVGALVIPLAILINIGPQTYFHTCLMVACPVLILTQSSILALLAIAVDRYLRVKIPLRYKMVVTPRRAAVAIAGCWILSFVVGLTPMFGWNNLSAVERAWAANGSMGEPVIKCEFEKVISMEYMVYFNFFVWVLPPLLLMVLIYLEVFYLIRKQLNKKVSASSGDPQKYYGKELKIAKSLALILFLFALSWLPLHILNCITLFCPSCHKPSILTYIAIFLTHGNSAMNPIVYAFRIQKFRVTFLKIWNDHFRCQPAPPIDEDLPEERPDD

[4] = molecular target: T3, Adenosine receptor A2b (Homo sapiens, UniProt P29275); assay: Binding affinity of compound for displacement of specific [3H]- DPCPX binding at human A2B receptors expressed in HEK293 cells; assay type: cell-based
T3 sequence (P29275 whole entry): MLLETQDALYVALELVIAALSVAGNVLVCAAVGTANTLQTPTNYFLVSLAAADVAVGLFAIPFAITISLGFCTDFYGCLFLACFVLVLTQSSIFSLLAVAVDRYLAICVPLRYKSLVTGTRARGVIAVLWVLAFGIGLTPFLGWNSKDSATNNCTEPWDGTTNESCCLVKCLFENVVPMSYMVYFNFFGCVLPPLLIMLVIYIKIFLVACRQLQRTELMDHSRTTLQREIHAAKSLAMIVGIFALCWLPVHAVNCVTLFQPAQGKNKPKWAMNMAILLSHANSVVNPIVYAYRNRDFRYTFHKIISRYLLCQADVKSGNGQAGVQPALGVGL

[5] = molecular target: T3, Adenosine receptor A2b; assay: Binding affinity of compound for displacement of [3H]DPCPX binding in HEK293 membranes expressing human A2B adenosine receptors
[6] = molecular target: T3, Adenosine receptor A2b; assay: Inhibitory activity against cAMP production in CHO cells transfected with human A2B adenosine receptor; assay type: functional, cell-based

Row | Ki [2] [µM] | Ki [3] [µM] | Ki [5] [µM] | IC50 [6] [µM] | SMILES | also measured
1 | > 1 | – | – | – | CCCn1c(=O)c2[nH]c(-c3cc(N)n(C)n3)nc2n(CCC)c1=O | Ki [1]: > 1 µM
2 | – | > 1 | – | – | CCCn1c(=O)c2[nH]c(-c3cc(OCC(=O)N4CCN(c5ccc(F)cc5)CC4)nn3C)nc2n(CCC)c1=O | –
3 | – | > 1 | – | – | CCCn1c(=O)c2[nH]c(-c3cc(OCC(=O)Nc4ccc(OC)cc4)no3)nc2n(CCC)c1=O | –
4 | > 1 | > 1 | – | – | CCCn1c(=O)c2[nH]c(-c3ccc(NC(=O)Cc4ccccc4)cc3)nc2n(CCC)c1=O | Ki [4]: 0.649 µM; Ki [1]: > 1 µM
5 | – | > 1 | – | – | CCCn1c(=O)c2[nH]c(-c3cc(NC(=O)Cc4ccc(O)cc4)nn3C)nc2n(CCC)c1=O | –
6 | – | > 1 | 0.036 | 0.115 | CCCn1c(=O)c2[nH]c(-c3cc(OCC(=O)Nc4ccc(C(=O)O)cc4)nn3C)nc2n(CCC)c1=O | –
7 | – | > 1 | 0.108 | 0.477 | CCCn1c(=O)c2[nH]c(-c3ccc(OCC(=O)Nc4ccc(I)cc4)nc3)nc2n(CCC)c1=O | –
8 | – | > 1 | 0.012 | 0.046 | CCCn1c(=O)c2[nH]c(-c3cc(OCC(=O)Nc4ccc(OC)c(OC)c4)nn3C)nc2n(CCC)c1=O | –
9 | – | > 1 | – | – | CCCn1c(=O)c2[nH]c(-c3cc(NC(=O)[C@H](C)c4ccccc4)nn3C)nc2n(CCC)c1=O | –
10 | – | > 1 | 0.032 | 0.12 | CCCn1c(=O)c2[nH]c(-c3cc(OCC(=O)Nc4ccc(C(=O)OCC)cc4)nn3C)nc2n(CCC)c1=O | –
11 | > 1 | > 1 | 0.047 | 0.14 | CCCn1c(=O)c2nc(-c3cc(OCC(=O)Nc4ccc5c(c4)OCO5)no3)[nH]c2n(CCC)c1=O | Ki [4]: 0.047 µM; Ki [1]: > 1 µM

The next lines start with the compound.

Row | SMILES | Ki [2] [µM] | Ki [3] [µM] | Ki [5] [µM] | IC50 [6] [µM] | also measured
12 | CCCn1c(=O)c2[nH]c(-c3cc(NC(=O)Cc4ccc(F)c(F)c4)nn3C)nc2n(CCC)c1=O | – | – | – | – | Ki [4]: 0.078 µM
13 | CCCn1c(=O)c2nc(-c3ccc(N)cc3)[nH]c2n(CCC)c1=O | > 1 | 0.065 | – | – | Ki [4]: 0.009 µM; Ki [1]: > 1 µM
14 | CCCn1c(=O)c2[nH]c(-c3cc(NC(=O)Cc4ccccc4)nn3C)nc2n(CCC)c1=O | – | – | 0.035 | – | –
15 | C=CCn1c(=O)c2[nH]c(-c3cc(OCC(=O)N4CCN(c5ccccc5)CC4)nn3C)nc2n(CC=C)c1=O | – | > 1 | 0.024 | 0.081 | –
16 | CCCn1c(=O)c2[nH]c(-c3cc(OCC(=O)N4CCN(C)CC4)nn3C)nc2n(CCC)c1=O | – | > 1 | 0.076 | 0.322 | Ki [4]: 0.076 µM; Ki ([3]; cho): > 1 µM
17 | CCCn1c(=O)c2[nH]c(-c3cc(OCC(=O)Nc4ccc(Br)cc4)nn3C)nc2n(CCC)c1=O | – | – | 0.02 | – | –
18 | CCCn1c(=O)c2[nH]c(-c3cc(NC(=O)Cc4ccc(O)c(OC)c4)nn3C)nc2n(CCC)c1=O | > 1 | > 1 | – | – | –
19 | CCCn1c(=O)c2[nH]c(-c3cc(OCC(=O)Nc4ccc(Cl)c(Cl)c4)nn3C)nc2n(CCC)c1=O | – | – | 0.016 | 0.06 | –
20 | CCCn1c(=O)c2[nH]c(-c3cc(OCC(=O)Nc4ccc(N5CCOCC5)cc4)nn3C)nc2n(CCC)c1=O | – | > 1 | – | – | –
21 | CCCn1c(=O)c2[nH]c(-c3cc(NC(=O)Cc4cccc(F)c4)nn3C)nc2n(CCC)c1=O | – | – | 0.05 | 0.16 | –
22 | CCCn1c(=O)c2[nH]c(-c3ccc(NC(=O)Nc4cccc(OC)c4)cc3)nc2n(CCC)c1=O | > 1 | 1.17 | – | – | Ki [4]: 0.058 µM; Ki [1]: > 1 µM
23 | CCCn1c(=O)c2[nH]c(-c3cc(OCC(=O)Nc4ccncc4)nn3C)nc2n(CCC)c1=O | > 1 | – | – | – | Ki [1]: > 1 µM
24 | CCCn1c(=O)c2[nH]c(-c3cc(NC(=O)Cc4ccc(OCc5ccccc5)cc4)nn3C)nc2n(CCC)c1=O | – | > 1 | 0.056 | 0.185 | –
25 | CCCn1c(=O)c2[nH]c(-c3cc(OCC(=O)Nc4ccc(C(C)=O)cc4)nn3C)nc2n(CCC)c1=O | > 1 | > 1 | – | – | Ki [1]: > 1 µM
26 | CCCn1c(=O)c2[nH]c(-c3cc(OCC(=O)Nc4ccc(F)cc4)no3)nc2n(CCC)c1=O | – | > 1 | – | – | –
27 | CCCn1c(=O)c2[nH]c(-c3cc(OCC(=O)N4CCN(Cc5ccccc5)CC4)nn3C)nc2n(CCC)c1=O | > 1 | – | – | – | Ki [1]: > 1 µM
